{
  "source": "patent US20050096311A1",
  "about": "“Compositions and methods for treatment of nervous system disorders” (CNS Response, priority 2003, published 2005)",
  "key": {"norepinephrine uptake": {"target": "norepinephrine uptake (Homo sapiens, UniProt P23975)", "sequence (P23975 whole entry)": "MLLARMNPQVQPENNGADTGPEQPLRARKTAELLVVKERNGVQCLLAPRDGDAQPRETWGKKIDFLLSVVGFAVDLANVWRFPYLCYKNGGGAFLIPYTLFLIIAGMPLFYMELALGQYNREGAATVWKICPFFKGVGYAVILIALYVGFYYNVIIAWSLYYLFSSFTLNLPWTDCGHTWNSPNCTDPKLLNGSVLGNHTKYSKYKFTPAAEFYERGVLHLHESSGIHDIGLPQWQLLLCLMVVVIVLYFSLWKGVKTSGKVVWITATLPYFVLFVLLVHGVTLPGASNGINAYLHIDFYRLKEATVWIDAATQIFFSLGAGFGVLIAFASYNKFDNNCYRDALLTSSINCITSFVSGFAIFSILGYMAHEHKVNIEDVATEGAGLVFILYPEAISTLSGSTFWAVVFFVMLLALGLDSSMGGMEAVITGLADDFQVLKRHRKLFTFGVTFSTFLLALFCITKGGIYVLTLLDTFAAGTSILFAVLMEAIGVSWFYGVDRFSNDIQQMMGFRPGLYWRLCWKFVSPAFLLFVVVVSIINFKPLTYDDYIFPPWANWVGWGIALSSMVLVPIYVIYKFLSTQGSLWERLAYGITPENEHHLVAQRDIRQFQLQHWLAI", "conditions": "cited from earlier work"}, "dopamine uptake": {"target": "dopamine uptake (Homo sapiens, UniProt Q01959)", "sequence (Q01959 whole entry)": "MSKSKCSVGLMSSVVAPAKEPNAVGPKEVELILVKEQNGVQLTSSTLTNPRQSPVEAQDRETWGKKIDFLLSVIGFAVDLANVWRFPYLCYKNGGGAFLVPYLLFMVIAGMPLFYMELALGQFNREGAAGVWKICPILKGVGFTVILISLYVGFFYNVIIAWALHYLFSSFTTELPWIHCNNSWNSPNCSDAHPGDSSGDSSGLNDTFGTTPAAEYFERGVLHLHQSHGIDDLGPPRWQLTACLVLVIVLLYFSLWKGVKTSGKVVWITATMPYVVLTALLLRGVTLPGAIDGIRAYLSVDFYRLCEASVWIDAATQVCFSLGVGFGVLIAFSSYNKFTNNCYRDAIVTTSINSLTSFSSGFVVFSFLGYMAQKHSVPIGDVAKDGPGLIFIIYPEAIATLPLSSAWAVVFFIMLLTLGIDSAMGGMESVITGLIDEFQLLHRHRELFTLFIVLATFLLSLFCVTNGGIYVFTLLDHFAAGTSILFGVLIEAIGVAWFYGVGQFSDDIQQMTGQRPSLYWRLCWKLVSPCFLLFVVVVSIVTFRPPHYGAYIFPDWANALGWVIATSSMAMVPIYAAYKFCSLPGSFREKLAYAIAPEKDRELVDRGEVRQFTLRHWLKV", "conditions": "cited from earlier work"}, "[1]": {"system": "nervous system disorder symptoms in affected patients", "test": "Randomized double-blind study in naive patients presenting at least one symptom of a nervous system disorder (Example 1)", "type": "in vivo", "excerpt": "The design of this study is a randomized double-blind protocol in which a first set of clinicians diagnosed a group of naive (i.e., previously untreated) patients presenting at least one symptom of a nervous system disorder.\nA second set of clinicians will monitor the compliance of each patient and assess the presence or absence of at least one symptom of a nervous system disorder on a weekly basis throughout the treatment period. At the termination of the study a third set of clinicians will evaluate the data and document the results.\nRelative to Group I, all treatment groups are expected to reduce at least one symptom of a nervous system disorder except Group IV."}, "[2]": {"conditions": "biphasic elimination; cited from earlier work"}, "[3]": {"conditions": "formulated as a hydrochloride salt; cited from earlier work"}, "[4]": {"conditions": "cited from earlier work"}, "[5]": {"conditions": "cited from earlier work", "remark": "listed apart in the source"}, "[6]": {"system": "Parkinson's disease symptoms", "conditions": "cited from earlier work"}, "pain of migraine": {"system": "pain of migraine", "conditions": "oral or intrapulmonary administration; cited from earlier work"}, "migraine attacks": {"system": "migraine attacks", "conditions": "given prophylactically; cited from earlier work"}},
  "data": [
    {"smiles": "C[C@@H]1NC(C)(C)CO[C@@]1(O)c1cccc(Cl)c1", "note": "[(S,S)-hydroxybupropion]", "values": [
      {"measurement": "inhibition of norepinephrine uptake", "setting": "norepinephrine uptake", "value": "effective inhibitor of only norepinephrine uptake"}
    ]},
    {"smiles": "C[C@H]1NC(C)(C)CO[C@]1(O)c1cccc(Cl)c1", "note": "[hydroxybupropion]", "values": [
      {"measurement": "inhibition of norepinephrine uptake", "setting": "norepinephrine uptake", "value": "effective inhibitor"},
      {"measurement": "inhibition of dopamine uptake", "setting": "dopamine uptake", "value": "effective inhibitor"}
    ]},
    {"smiles": "CC(NC(C)(C)C)C(=O)c1cccc(Cl)c1", "note": "(stereo not drawn) [bupropion, m-chloro-α-(t-butylamino)propiophenone]", "values": [
      {"measurement": "Percent Reduction In Nervous System Disorder Symptoms In Affected Patients", "setting": "[1]; Symptom EIGHT", "value": "25 ± 2.5", "unit": "%"},
      {"measurement": "Percent Reduction In Nervous System Disorder Symptoms In Affected Patients", "setting": "[1]; Symptom FIVE", "value": "25 ± 2.5", "unit": "%"},
      {"measurement": "Percent Reduction In Nervous System Disorder Symptoms In Affected Patients", "setting": "[1]; Symptom FOUR", "value": "25 ± 2.5", "unit": "%"},
      {"measurement": "Percent Reduction In Nervous System Disorder Symptoms In Affected Patients", "setting": "[1]; Symptom ONE", "value": "25 ± 2.5", "unit": "%"},
      {"measurement": "Percent Reduction In Nervous System Disorder Symptoms In Affected Patients", "setting": "[1]; Symptom SEVEN", "value": "25 ± 2.5", "unit": "%"},
      {"measurement": "Percent Reduction In Nervous System Disorder Symptoms In Affected Patients", "setting": "[1]; Symptom SIX", "value": "25 ± 2.5", "unit": "%"},
      {"measurement": "Percent Reduction In Nervous System Disorder Symptoms In Affected Patients", "setting": "[1]; Symptom THREE", "value": "25 ± 2.5", "unit": "%"},
      {"measurement": "Percent Reduction In Nervous System Disorder Symptoms In Affected Patients", "setting": "[1]; Symptom TWO", "value": "25 ± 2.5", "unit": "%"},
      {"measurement": "elimination half-life", "setting": "[2]", "value": "11 to 14", "unit": "h"},
      {"measurement": "redistribution half-life", "setting": "[2]", "value": "about one"},
      {"measurement": "solubility", "setting": "[3]", "value": "water-soluble"}
    ]},
    {"smiles": "NC(=O)N1c2ccccc2CC(O)c2ccccc21", "note": "(stereo not shown) [MHD, 10, 11-dihydro-10-OH-carbazepine]", "values": [
      {"measurement": "increase in the non-protein bound plasma MHD concentration", "setting": "[4]; co-administration of oxcarbazepine and vilooxazoine", "value": 11, "unit": "%"},
      {"measurement": "plasma protein binding", "setting": "[5]; distribution between blood cell compartments", "value": "low level of plasma protein binding"},
      {"measurement": "mean non-protein bound MHD fraction", "setting": "[5]; epileptic patients", "value": "approximately 56.7 +/−5.5%"}
    ]},
    {"smiles": "N[C@@H](Cc1ccc(O)c(O)c1)C(=O)O", "note": "[Levodopa, L-3,4-dihydroxyphenylalanine]", "values": [
      {"measurement": "reduction in symptomology", "setting": "[6]; Parkinson's disease patients", "value": 50, "unit": "%"},
      {"measurement": "treated patients showing the reduction in symptomology", "setting": "[6]; Parkinson's disease patients", "value": 75, "unit": "%"}
    ]},
    {"smiles": "C[C@@](Cc1ccc(O)c(O)c1)(NN)C(=O)O", "note": "[carbidopa]", "values": [
      {"measurement": "reduction of the dose of levodopa", "setting": "[6]; concurrent administration of carbidopa", "value": "≤ 75", "unit": "%"}
    ]},
    {"smiles": "NC(=O)N1c2ccccc2CC(=O)c2ccccc21", "note": "[oxcarbazepine]", "values": [
      {"measurement": "plasma half-life", "setting": "[4]; 600 mg oxcarbazepine dose", "value": "approximately 19.3±6.2 hours"},
      {"measurement": "Percent Reduction In Nervous System Disorder Symptoms In Affected Patients", "setting": "[1]; Symptom EIGHT", "value": "10 ± 1", "unit": "%"},
      {"measurement": "Percent Reduction In Nervous System Disorder Symptoms In Affected Patients", "setting": "[1]; Symptom FIVE", "value": "10 ± 1", "unit": "%"},
      {"measurement": "Percent Reduction In Nervous System Disorder Symptoms In Affected Patients", "setting": "[1]; Symptom FOUR", "value": "10 ± 1", "unit": "%"},
      {"measurement": "Percent Reduction In Nervous System Disorder Symptoms In Affected Patients", "setting": "[1]; Symptom ONE", "value": "10 ± 1", "unit": "%"},
      {"measurement": "Percent Reduction In Nervous System Disorder Symptoms In Affected Patients", "setting": "[1]; Symptom SEVEN", "value": "10 ± 1", "unit": "%"},
      {"measurement": "Percent Reduction In Nervous System Disorder Symptoms In Affected Patients", "setting": "[1]; Symptom SIX", "value": "10 ± 1", "unit": "%"},
      {"measurement": "Percent Reduction In Nervous System Disorder Symptoms In Affected Patients", "setting": "[1]; Symptom THREE", "value": "10 ± 1", "unit": "%"},
      {"measurement": "Percent Reduction In Nervous System Disorder Symptoms In Affected Patients", "setting": "[1]; Symptom TWO", "value": "10 ± 1", "unit": "%"}
    ]},
    {"smiles": "CN1C[C@H](C(=O)N[C@]2(C)O[C@@]3(O)[C@@H]4CCCN4C(=O)[C@H](Cc4ccccc4)N3C2=O)C=C2c3cccc4[nH]cc(c34)C[C@H]21", "note": "[Ergotamine]", "values": [
      {"measurement": "time to pain relief", "setting": "pain of migraine", "value": 5, "unit": "h"}
    ]},
    {"smiles": "CC(C)NCC(O)COc1cccc2ccccc12", "note": "(stereo not shown) [propranolol]", "values": [
      {"measurement": "patients with reduced frequency and intensity of migraine attacks", "setting": "migraine attacks", "value": 70, "unit": "%"}
    ]}
  ]
}
